# Measurements reported in US8618111B2, “5-alkynyl-pyrimidines” (Boehringer Ingelheim International GmbH, priority 2010, dated 2013).
# Tests used:
# mTOR = mTOR (Homo sapiens (Human), UniProt P42345); experiment: mTOR kinase activity assay (phosphorylation status of mTOR substrate 4E-BP1; TR-FRET); assay type: biochemical; conditions: GFP-4E-BP1 substrate, 8 μM ATP
# Experimental: mTOR Kinase Activity Assay
# (Phosphorylation Status of mTOR Substrate 4E-BP1; TR-FRET)
# The mTOR kinase TR-FRET assay utilizes a physiologically relevant protein substrate for mTOR (4E-BP1, labeled with an acceptor fluorophore (Green Fluorescent Protein) and paired with a corresponding Tb-labeled phospho-specific antibody.
# The assay itself is divided into two phases: the reaction phase and the detection phase. In the reaction phase, all components required for the kinase reaction are added to the well, including the labeled protein substrate. The reaction is allowed to incubate for 60 minutes. After the reaction, EDTA is added to stop the kinase reaction, and terbium-labeled antibody is added to bind phosphorylated product. Because the terbium chelate is stable at the EDTA concentrations used to stop a kinase assay, the antibody and EDTA can be pre-mixed prior to addition to minimize pipetting steps. Binding of the terbium labeled antibody to the fluorophore-labeled phosphorylated product brings the terbium and GFP into proximity, resulting in an increase in TR-FRET. In the presence of an inhibitor, formation of phosphorylated product is reduced, and the TR-FRET value is decreased.
# • GFP-4E-BP1 substrate; Invitrogen order no. PV4759 • Lanthascreen Tb-anti-p4E-BP1 (pThr46) Antibody Kit; Invitrogen order no. PV4758 • FRAP1 (mTOR) kinase; Invitrogen order no.
# 400 nM GFP-4E-BP1, 8 μM ATP, ˜150 ng/mL mTOR, 50 mM HEPES pH 7.5, 0.01% Polysorbate 20, 1 mM EGTA, 10 mM MnCl2, and variable amounts of test compounds.
# Note: Thaw and keep mTOR, the substrate, ATP, and the antibody on ice prior to making working dilutions. Working dilutions of these components can be kept at room temperature for short periods of time the day of use. • 1. Add 2 ml of 5× Assay Buffer to 8 ml water to prepare 10 ml of 1× Assay Buffer, wherein the concentration of 1× Assay Buffer is 50 mM HEPES pH 7.5, 0.01% Polysorbate 20, 1 mM EGTA, and 10 mM MnCl2. • 2. Prepare Antibody/EDTA Solution by first adding 2.75 μl of Tb-anti p4E-BP1 Antibody to 2397 μl of LanthaScreen™ TR-FRET Dilution Buffer. Then, add 100 μl of 0.5 M EDTA. • 3. […] Then, add 1.6 μl of mTOR (0.45 mg/mL). • 4. Prepare ATP Solution by adding 3.2 μl of 10 mM ATP to 1997 μl of 1× Assay Buffer. Serial Dilution of Inhibitors (16 Point Curve)
# Inhibitors are serially diluted in DMSO, then diluted to a 4× working concentration with 1× Assay Buffer. • 1. Dispense 40 μl of DMSO to two adjacent columns of a 96 well plate per compound (e.g. columns 1 and 2). • 2. Add 10 μl of inhibitor stock (10 mM) to the first well of the first column (A1) and mix. • 3. Remove 10 μl from A1 and transfer to the adjacent well in the next column (B1) and mix. • 4. Remove 10 μl from B1 and transfer to the next well in the first column (B2) and mix. • 5. […] Remove 4 μl of diluted compounds and add to 96 μl of 1× Assay Buffer in a 96-well plate making 4× compound dilutions. Kinase Reaction • 1. Add 2.5 μl of 4X compound dilutions to a 384-well plate. • 2. […] Preincubate for […] at RT (shaker). • 5. Add 5 μl of ATP Solution to all wells to start reactions. • 6. Shake the assay plate on a plate shaker for 30 seconds. • 7. Incubate the assay plate for one hour at room temperature (20-25° C.). Stop Step and Fluorescence Detection • 1. Add 10 μl of Antibody/EDTA Solution to each well in columns 1-9. • 2. Shake the assay plate on a plate shaker for 30 seconds. • 3. Incubate the assay plate for one hour at room temperature (20-25° C.). • 4. Measure the GFP (FRET) and terbium (reference) emission signals on a fluorescence plate reader (e.g. Perkin Elmer Envision). Data Analysis • 1. Calculate the emission ratio for each sample by dividing the GFP (FRET) signal by the terbium (reference) signal. • 2.
# PI3Kalpha = PI3Kalpha (Homo sapiens (Human), UniProt P42336); experiment: Inhibition of PI3Kalpha-induced PIP-2 phosphorylation (filter-binding assay); assay type: biochemical; conditions: 33P-ATP
# PI3Kalpha, sequence (P42336 whole entry, species assumed): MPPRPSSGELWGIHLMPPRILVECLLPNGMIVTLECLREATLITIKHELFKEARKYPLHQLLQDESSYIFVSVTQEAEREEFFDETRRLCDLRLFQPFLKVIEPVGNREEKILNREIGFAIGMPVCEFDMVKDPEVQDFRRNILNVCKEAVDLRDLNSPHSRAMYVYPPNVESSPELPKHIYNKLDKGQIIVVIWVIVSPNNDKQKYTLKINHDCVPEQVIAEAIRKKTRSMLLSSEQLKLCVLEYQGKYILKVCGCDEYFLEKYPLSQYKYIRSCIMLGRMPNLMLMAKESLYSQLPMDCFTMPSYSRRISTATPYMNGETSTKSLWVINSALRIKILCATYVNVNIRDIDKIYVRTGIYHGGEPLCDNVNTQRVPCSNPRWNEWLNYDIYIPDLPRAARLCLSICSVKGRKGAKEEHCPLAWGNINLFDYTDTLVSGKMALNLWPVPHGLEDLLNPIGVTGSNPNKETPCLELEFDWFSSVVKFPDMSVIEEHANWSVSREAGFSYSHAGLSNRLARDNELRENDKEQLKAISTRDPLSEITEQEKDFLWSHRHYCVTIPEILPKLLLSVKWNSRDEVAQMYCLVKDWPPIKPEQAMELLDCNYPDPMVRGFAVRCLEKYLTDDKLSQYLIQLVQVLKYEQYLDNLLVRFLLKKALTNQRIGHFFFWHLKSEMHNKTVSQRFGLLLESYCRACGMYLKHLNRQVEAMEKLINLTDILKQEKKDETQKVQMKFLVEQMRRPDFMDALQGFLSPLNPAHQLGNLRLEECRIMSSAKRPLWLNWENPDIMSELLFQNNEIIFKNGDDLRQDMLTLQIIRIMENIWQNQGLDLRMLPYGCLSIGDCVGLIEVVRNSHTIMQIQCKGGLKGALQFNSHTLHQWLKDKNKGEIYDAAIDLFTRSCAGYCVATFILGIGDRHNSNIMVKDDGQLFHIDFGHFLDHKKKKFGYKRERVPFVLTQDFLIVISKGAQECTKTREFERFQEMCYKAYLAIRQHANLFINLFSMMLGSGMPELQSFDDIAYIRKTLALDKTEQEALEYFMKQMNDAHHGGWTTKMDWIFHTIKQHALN
# PI3Kalpha, sequence (P27986 whole entry partner, species assumed): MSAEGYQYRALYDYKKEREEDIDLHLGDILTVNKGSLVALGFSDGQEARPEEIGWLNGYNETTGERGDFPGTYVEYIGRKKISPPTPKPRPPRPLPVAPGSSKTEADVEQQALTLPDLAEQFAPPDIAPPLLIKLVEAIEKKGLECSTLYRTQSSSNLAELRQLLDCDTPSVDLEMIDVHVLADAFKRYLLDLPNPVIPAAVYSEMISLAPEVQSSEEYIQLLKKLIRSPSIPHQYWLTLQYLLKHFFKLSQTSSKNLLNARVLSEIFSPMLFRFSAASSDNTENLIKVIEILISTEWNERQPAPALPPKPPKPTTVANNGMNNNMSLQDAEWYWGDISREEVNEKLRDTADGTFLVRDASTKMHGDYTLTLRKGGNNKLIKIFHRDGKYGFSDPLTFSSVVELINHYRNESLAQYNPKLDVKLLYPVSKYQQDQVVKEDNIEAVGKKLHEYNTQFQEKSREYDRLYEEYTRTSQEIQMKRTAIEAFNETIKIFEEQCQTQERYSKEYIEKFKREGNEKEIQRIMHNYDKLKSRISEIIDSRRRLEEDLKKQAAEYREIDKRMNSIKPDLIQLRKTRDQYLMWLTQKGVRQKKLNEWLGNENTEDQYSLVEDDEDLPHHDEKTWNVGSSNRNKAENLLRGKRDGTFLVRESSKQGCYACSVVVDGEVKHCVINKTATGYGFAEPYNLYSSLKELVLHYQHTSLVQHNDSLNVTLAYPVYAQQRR
# Experimental: Inhibition of PI3Kalpha-Induced PIP-2 Phosphorylation
# Method Type: Filter-Binding-Assay
# Aliquoted in desired amounts and stored at −80° C. Final assay concentration 25 ng/well.
# [1] = system: PC3 (human prostate carcinoma cell line) cells; experiment: PC3 proliferation test; assay type: cell-based; conditions: PC-3, 72 h, 3 days incubation, DNA dye fluorescence
# Experimental: The test is based on measurement of cellular DNA content via fluorescent dye binding. Because cellular DNA content is highly regulated, it is closely proportional to cell number. The extent of proliferation is determined by comparing cell counts for samples treated with drugs with untreated controls.
# PC3 (human prostate carcinoma cell line) cells are sown in microtitre plates and incubated overnight in culture medium at 37° C. and 5% CO2. The test substances are diluted stepwise and added to the cells such that the total volume is 200 μL/well. Cells to which diluent, but not substance, is added serve as controls.
# mTOR, sequence (P42345 1360-2549): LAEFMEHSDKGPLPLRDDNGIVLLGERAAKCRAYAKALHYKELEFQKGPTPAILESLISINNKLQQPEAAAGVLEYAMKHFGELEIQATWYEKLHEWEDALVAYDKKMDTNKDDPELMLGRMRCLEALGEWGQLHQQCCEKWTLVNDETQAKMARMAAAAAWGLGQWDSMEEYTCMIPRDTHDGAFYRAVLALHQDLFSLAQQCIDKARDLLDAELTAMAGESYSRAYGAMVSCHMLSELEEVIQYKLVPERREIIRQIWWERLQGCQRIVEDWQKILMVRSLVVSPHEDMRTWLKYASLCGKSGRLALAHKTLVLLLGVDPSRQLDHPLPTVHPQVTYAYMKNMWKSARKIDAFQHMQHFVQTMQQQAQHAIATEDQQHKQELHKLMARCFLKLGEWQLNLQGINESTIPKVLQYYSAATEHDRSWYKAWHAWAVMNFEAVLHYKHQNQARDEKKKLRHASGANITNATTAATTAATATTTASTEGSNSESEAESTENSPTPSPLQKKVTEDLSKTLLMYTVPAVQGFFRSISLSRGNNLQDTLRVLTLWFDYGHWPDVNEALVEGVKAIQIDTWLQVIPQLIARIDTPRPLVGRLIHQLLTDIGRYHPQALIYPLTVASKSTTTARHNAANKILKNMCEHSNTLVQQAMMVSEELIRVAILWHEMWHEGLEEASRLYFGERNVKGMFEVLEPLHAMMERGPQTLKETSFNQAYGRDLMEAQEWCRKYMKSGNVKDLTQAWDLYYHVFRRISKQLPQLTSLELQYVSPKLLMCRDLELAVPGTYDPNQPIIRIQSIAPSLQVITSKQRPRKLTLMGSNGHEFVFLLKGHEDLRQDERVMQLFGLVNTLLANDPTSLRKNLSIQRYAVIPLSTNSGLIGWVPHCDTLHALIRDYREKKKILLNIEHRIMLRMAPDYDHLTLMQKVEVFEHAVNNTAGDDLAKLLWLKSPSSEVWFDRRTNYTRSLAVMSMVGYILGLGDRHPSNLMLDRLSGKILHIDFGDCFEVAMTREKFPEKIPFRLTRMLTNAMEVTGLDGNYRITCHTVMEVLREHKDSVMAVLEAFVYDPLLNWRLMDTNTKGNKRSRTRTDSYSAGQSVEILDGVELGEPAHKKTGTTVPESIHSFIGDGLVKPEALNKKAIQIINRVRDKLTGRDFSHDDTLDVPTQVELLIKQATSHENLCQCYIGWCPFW
smiles,measurement,setting,value
CCN(C)C(=O)CC1CCN(c2ncnc(C)c2C#Cc2ccc(N)nc2)CC1 [Example E-7],IC50,mTOR,53 nM
same,IC50 PI3Ka,PI3Kalpha,44 nM
same,EC50,[1],266 nM
Cc1ncnc(N2CCC(C)(O)CC2)c1C#Cc1ccc(N)nc1 [Example B-23],IC50,mTOR,7 nM
same,EC50,[1],19 nM
CCc1ncnc(N2CCC(OC)CC2)c1C#Cc1ccc(NC)nc1 [Example B-86],IC50,mTOR,9 nM
same,IC50 PI3Ka,PI3Kalpha,94 nM
same,EC50,[1],115 nM
CCc1ncnc(N2CCC(CC(C)(C)O)CC2)c1C#Cc1ccc(N)nc1 [Example B-14],IC50,mTOR,9 nM
same,IC50 PI3Ka,PI3Kalpha,26 nM
same,EC50,[1],29 nM
CCc1ncnc(N2CCCC2)c1C#Cc1ccc(N)nc1 [Example B-58],IC50,mTOR,42 nM
same,IC50 PI3Ka,PI3Kalpha,131 nM
same,EC50,[1],492 nM
Cc1ncnc(N2CCC(O)C(C)C2)c1C#Cc1ccc(N)nc1 (centres unmarked) [Example B-67],IC50,mTOR,43 nM
same,IC50 PI3Ka,PI3Kalpha,90 nM
same,EC50,[1],174 nM
CCc1ncnc(N2CCC(F)(F)CC2)c1C#Cc1ccc(N)nc1 [Example B-42],IC50,mTOR,31 nM
same,IC50 PI3Ka,PI3Kalpha,196 nM
same,EC50,[1],105 nM
CCc1ncnc(N2CCC(C(F)(F)F)CC2)c1C#Cc1ccc(N)nc1 [Example B-41],IC50,mTOR,9 nM
same,IC50 PI3Ka,PI3Kalpha,201 nM
same,EC50,[1],19 nM
Cc1ncnc(N2CCN(C(=O)C3CCC3)CC2)c1C#Cc1ccc(N)nc1 [Example G-8],IC50,mTOR,64 nM
same,IC50 PI3Ka,PI3Kalpha,22 nM
same,EC50,[1],206 nM
CCc1ncnc(N2CCN(CCCS(C)(=O)=O)CC2)c1C#Cc1ccc(N)nc1 [Example H-15],IC50,mTOR,25 nM
same,IC50 PI3Ka,PI3Kalpha,108 nM
CCc1ncnc(N2CCN(Cc3nc(C)c(C)o3)CC2)c1C#Cc1ccc(N)nc1 [Example H-28],IC50,mTOR,258 nM
same,IC50 PI3Ka,PI3Kalpha,232 nM
Cc1ncnc(N2CCC(=O)CC2)c1C#Cc1ccc(N)nc1 [Example B-65],EC50,[1],218 nM
COC1CCN(c2ncnc(C)c2C#Cc2ccc(N)nc2)CC1 [Example B-38],IC50,mTOR,18 nM
same,IC50 PI3Ka,PI3Kalpha,37 nM
same,EC50,[1],122 nM
CCc1ncnc(N2CCC(OC)CC2)c1C#Cc1ccc(N)nc1 [Example B-44],IC50,mTOR,10 nM
same,IC50 PI3Ka,PI3Kalpha,58 nM
same,EC50,[1],76 nM
Cc1ncnc(N2CCC(O)(C(C)C)CC2)c1C#Cc1ccc(N)nc1 [Example B-66],IC50,mTOR,5 nM
same,IC50 PI3Ka,PI3Kalpha,51 nM
same,EC50,[1],24 nM
CCc1ncnc(N2CCC(O)(Cc3ccccc3)CC2)c1C#Cc1ccc(N)nc1 [Example B-17],IC50,mTOR,74 nM
same,IC50 PI3Ka,PI3Kalpha,115 nM
same,EC50,[1],129 nM
CCc1ncnc(N2CCC(CCO)CC2)c1C#Cc1ccc(N)nc1 [Example B-18],IC50,mTOR,5 nM
same,IC50 PI3Ka,PI3Kalpha,35 nM
same,EC50,[1],34 nM
CCc1ncnc(N2CCN(C(=O)N3CCOCC3)CC2)c1C#Cc1ccc(N)nc1 [Example H-16],IC50,mTOR,22 nM
same,IC50 PI3Ka,PI3Kalpha,116 nM
Cc1ncnc(N2C[C@@H](C)O[C@@H](C)C2)c1C#Cc1ccc(N)nc1 [Example B-9],IC50,mTOR,11 nM
same,IC50 PI3Ka,PI3Kalpha,34 nM
same,EC50,[1],184 nM
CCc1ncnc(N2CCN(S(C)(=O)=O)CC2)c1C#Cc1ccc(N)nc1 [Example B-43],IC50,mTOR,16 nM
same,IC50 PI3Ka,PI3Kalpha,88 nM
same,EC50,[1],139 nM
CCc1ncnc(N2CCC(CCO)CC2)c1C#Cc1ccc(C)nc1 [Example B-29],IC50,mTOR,67 nM
same,IC50 PI3Ka,PI3Kalpha,88 nM
same,EC50,[1],234 nM
CCc1ncnc(N2CCN(c3ccccc3C(F)(F)F)CC2)c1C#Cc1ccc(N)nc1 [Example H-19],IC50,mTOR,2000 nM
same,IC50 PI3Ka,PI3Kalpha,1861 nM
CCc1ncnc(N2CCNC(=O)C2)c1C#Cc1ccc(N)nc1 [Example H-5],IC50,mTOR,91 nM
same,IC50 PI3Ka,PI3Kalpha,745 nM
Cc1ncnc(N2CCC(CNC(=O)CC3CCCC3)CC2)c1C#Cc1ccc(N)nc1 [Example F-3],IC50,mTOR,16 nM
same,IC50 PI3Ka,PI3Kalpha,39 nM
same,EC50,[1],335 nM
CCc1ncnc(N2CCC(CO)CC2)c1C#Cc1ccc(N)nc1 [Example B-45],IC50,mTOR,10 nM
same,IC50 PI3Ka,PI3Kalpha,58 nM
same,EC50,[1],46 nM
CCc1ncnc(N2CCC(O)(c3ccccc3)CC2)c1C#Cc1ccc(N)nc1 [Example B-16],IC50,mTOR,7 nM
same,IC50 PI3Ka,PI3Kalpha,91 nM
same,EC50,[1],34 nM
CCc1ncnc(N2CCN(CCN3CCOCC3)CC2)c1C#Cc1ccc(N)nc1 [Example H-9],IC50,mTOR,1570 nM
same,IC50 PI3Ka,PI3Kalpha,449 nM
CCc1ncnc(N2CCC(OCCOC)CC2)c1C#Cc1ccc(N)nc1 [Example B-37],IC50,mTOR,36 nM
same,IC50 PI3Ka,PI3Kalpha,89 nM
same,EC50,[1],148 nM
CCc1ncnc(N2CCN(C(=O)NC)CC2)c1C#Cc1ccc(N)nc1 [Example G-1],IC50,mTOR,84 nM
same,IC50 PI3Ka,PI3Kalpha,33 nM
same,EC50,[1],212 nM
CCc1ncnc(N2CCc3cc(OC)c(OC)cc3C2)c1C#Cc1ccc(N)nc1 [Example H-18],IC50,mTOR,83 nM
same,IC50 PI3Ka,PI3Kalpha,43 nM
Cc1ccc(C(=O)N2CCN(c3ncnc(C)c3C#Cc3ccc(N)nc3)CC2)o1 [Example G-10],IC50,mTOR,60 nM
same,IC50 PI3Ka,PI3Kalpha,25 nM
same,EC50,[1],221 nM
CCc1ncnc(N2CCNC(=O)C2)c1C#Cc1ccc(N)nc1 [Example H-4],IC50,mTOR,45 nM
same,IC50 PI3Ka,PI3Kalpha,58 nM
CCOC1CCN(c2ncnc(CC)c2C#Cc2ccc(N)nc2)CC1 [Example B-46],EC50,[1],72 nM
Cc1ncnc(N2CCC(CC(=O)N3CCN(C)CC3)CC2)c1C#Cc1ccc(N)nc1 [Example E-2],IC50,mTOR,366 nM
same,IC50 PI3Ka,PI3Kalpha,96 nM
CCc1ncnc(N2CCc3c(ncnc3N3CCOCC3)C2)c1C#Cc1ccc(N)nc1 [Example H-27],IC50,mTOR,139 nM
same,IC50 PI3Ka,PI3Kalpha,103 nM
Cc1ncnc(N2CCC(CNC(=O)CC(C)C)CC2)c1C#Cc1ccc(N)nc1 [Example F-7],IC50,mTOR,237 nM
same,IC50 PI3Ka,PI3Kalpha,47 nM
Cc1ncnc(N2CCC(CC(=O)N(C)CCN(C)C)CC2)c1C#Cc1ccc(N)nc1 [Example E-3],IC50,mTOR,457 nM
same,IC50 PI3Ka,PI3Kalpha,2001 nM
CCc1ncnc(N2CCC(O)(CC)CC2)c1C#Cc1ccc(N)nc1 [Example B-36],IC50,mTOR,5 nM
same,EC50,[1],20 nM
CCc1ncnc(N2CCn3c(COC)nnc3C2)c1C#Cc1ccc(N)nc1 [Example H-8],IC50,mTOR,127 nM
same,IC50 PI3Ka,PI3Kalpha,185 nM
Cc1ncnc(N2CCC(CNC(=O)CN(C)C)CC2)c1C#Cc1ccc(N)nc1 [Example F-4],IC50,mTOR,457 nM
same,IC50 PI3Ka,PI3Kalpha,301 nM
CCc1ncnc(N2CCN(C3COC3)CC2)c1C#Cc1ccc(N)nc1 [Example H-26],IC50,mTOR,47 nM
same,IC50 PI3Ka,PI3Kalpha,105 nM
Cc1ncnc(N2CCC(CC(=O)NCCN(C)C)CC2)c1C#Cc1ccc(N)nc1 [Example E-8],IC50,mTOR,261 nM
same,IC50 PI3Ka,PI3Kalpha,149 nM
CCc1ncnc(N2CCc3ccccc3C2)c1C#Cc1ccc(N)nc1 [Example H-17],IC50,mTOR,68 nM
same,IC50 PI3Ka,PI3Kalpha,56 nM
CCc1ncnc(N2CCC3(CCCCC3)CC2)c1C#Cc1ccc(N)nc1 [Example H-3],IC50,mTOR,333 nM
same,IC50 PI3Ka,PI3Kalpha,369 nM
CCc1ncnc(N2CCN(C3CCOCC3)CC2)c1C#Cc1ccc(N)nc1 [Example H-12],IC50,mTOR,77 nM
same,IC50 PI3Ka,PI3Kalpha,141 nM
